Results on 80 compounds are retold here after publication PMC12040169 (PLOS Biology, 2025).

The first data set in a line: in vitro. Conditions: human, hela cells.
A word on the viability: it is a read-out of living cells in per cent, often relative to untreated cells. Take `CN(C)C(=O)Oc1ccc2[nH]c3c(c2c1)CCNC31CCN(CCOc2ccccc2)C1` (centres unmarked) [CBK107679]: the viability at 28.5 h, 10 µM is 95.1%.

The data set is the same for the next values; noted with them: human, hela cells, % viability.
With `Cc1c(C(=O)NCc2ccccn2)nnn1-c1cccc(C(F)(F)F)c1` [CBK107395], the viability at 28.5 h, 10 µM was found to be 92.9%.
On the same count and under the same terms, then `O=C(Nc1cccnc1)c1cc(C(=O)c2ccc(Cl)cc2Cl)c[nH]1` [CBK107406], with 93.7%; and `O=C(c1c[nH]c(C(=O)N2CCN(c3ccccn3)CC2)c1)c1ccc(Cl)cc1Cl` [CBK107419], with 86.5%; and `O=C(NCCN1CCCC1)c1cnc2cc(C(F)(F)F)ccc2c1O` [CBK107426], with 104%.
On to `O=C(c1cnc2cc(C(F)(F)F)ccc2c1O)N1CCN(c2ccccn2)CC1` [CBK107431], for which the viability at 28.5 h, 10 µM amounted to 94.8%.
Turning to `COc1ccc(Nc2cc(Cl)ccc2C(=O)NC(C)(C)CN2CCOCC2)cn1` [CBK107436], the viability at 28.5 h, 10 µM worked out at 97.1%.
On the same count and under the same terms, under `O=C(Nc1ccccn1)c1cnn(-c2ccc(Cl)cc2)c1C(F)(F)F` [CBK107442] stands 92.2%; under `O=C(c1cnn(-c2ccc(Cl)cc2)c1C(F)(F)F)N1CCN(c2ncccn2)CC1` [CBK107448], 98%; under `NCCCNC(=O)c1ccc(-c2cccc(C(F)(F)F)c2)o1` [CBK107454], 89.4%.
`O=C(Nc1cccnc1)c1cnc2cc(C(F)(F)F)ccc2c1O` [CBK107474]: the viability at 28.5 h, 10 µM is 77.8%.
The same measure, in the same setting: under `CCn1c(SCC(=O)Nc2ccc([N+](=O)[O-])cc2)nnc1C(NC(=O)c1ccccc1)C(C)C` (centres unmarked) [CBK107508] stands 94.9%; under `CN(C)c1cccc(NC(=O)Nc2ncc(Br)c3cccnc23)c1` [CBK107633], 94%.
`O=C(Nc1ccc(OC(F)F)cc1)Nc1ncc(Br)c2cccnc12` [CBK107635]: the viability at 28.5 h, 10 µM is 115%.
Consider `O=C(Nc1ccc2oc(-c3cccnc3)nc2c1)c1ccc(-c2ccc(OC(F)(F)F)cc2)o1` [CBK107713], for which the viability at 28.5 h, 10 µM stood at 101%.
Take `CNC(=O)CSc1nccc(C(F)(F)F)n1` [CBK107759]: the viability at 28.5 h, 10 µM came out at 101%.
Same read-out and setting: under `CNCc1cc(Br)c(OCC(=O)Nc2ccccc2OC)c(OC)c1` [CBK107772] stands 106%.
Same read-out and setting: then `NC1=C2NN(c3ccc(Cl)cc3Cl)N=C2N(c2ccccc2)N1` [CBK107773], with 98.1%; and `Clc1ccccc1OCCNC1CCc2[nH]c3ccccc3c2C1` (centres unmarked) [CBK107790], with 107%; and `Fc1ccc(OCCNC2CCc3[nH]c4ccccc4c3C2)cc1` (centres unmarked) [CBK107791], with 83.7%.
The same measure, in the same setting: then `COC(=O)CCCN1CCCC12CCc1[nH]c3ccccc3c1C2` (centres unmarked) [CBK107798T], with 95.6%.
Consider `Oc1ccc(-c2cncc(Nc3cccc(Br)c3)n2)cc1` [CBK107803], for which the viability at 28.5 h, 10 µM stood at 84.8%.
Same read-out and setting: then `CCCc1cc(-c2c(Cl)cccc2Cl)[nH]n1` [CBK107818], with 91.2%; and `O=C(NC1CCCCCC1)c1[nH]nc(O)c1Cc1c(Cl)cccc1Cl` [CBK107847], with 91.9%; and `COc1ccc(CCCC(=O)Nc2cc(N3CCNCC3)ncn2)cc1OC` [CBK107856], with 93.9%.
For `CC(C)Nc1nc2ccccc2nc1SCCC(=O)O` [CBK107858], the viability at 28.5 h, 10 µM was found to be 106%.
Same read-out and setting: then `O=C(O)CCSc1nc2ccccc2nc1N1CCCC1` [CBK107862], with 95.7%.
Same read-out and setting: under `O=C(O)CSc1nc2cc(Cl)c(Cl)cc2nc1N1CCCC1` [CBK107863] stands 92.9%; under `COc1ccccc1-c1[nH]nc(O)c1Cc1c(Cl)cccc1Cl` [CBK107933], 86.1%.
Consider `CCC1(CC)OC(NC23CC4CC(CC(O)(C4)C2)C3)=NC1=O` [CBK107938], for which the viability at 28.5 h, 10 µM is 99.1%.
On the same count and under the same terms, then `Cc1ccc(C)c2[nH]c(=O)c(CN(CCN3CCOCC3)Cc3nnnn3Cc3ccccc3)cc12` [CBK108063], with 93.1%; and `CCc1cc2cc3c(cc2nc1SCC(=O)Nc1cc(OC)ccc1OC)OCO3` [CBK108546], with 91.8%.
On the same count and under the same terms, under `CCc1cc2cc3c(cc2nc1SCC(=O)Nc1cccc(C(C)=O)c1)OCO3` [CBK108551] stands 92.6%.
Same read-out and setting: under `Cc1cc(C)c2cc(CN(CCO)Cc3nnnn3CC3CCCO3)c(=O)[nH]c2c1` (centres unmarked) [CBK108944] stands 80%; under `CCOC(=O)Cc1csc(NC(=O)CSc2nc3cc4c(cc3cc2C)OCO4)n1` [CBK109112], 105%; under `Cc1cccc2cc(C#N)c(NCCCn3ccnc3)nc12` [CBK109369], 77.9%.
In the case of `O=C1c2ccccc2CN1c1cccc(Cl)c1Cl` [CBK109916], the viability at 28.5 h, 10 µM is 82.3%.
For the compound `COc1ccc2c(c1OC)C(=O)N(c1cccc(/C=C/C(=O)O)c1)C2` [CBK109932], the viability at 28.5 h, 10 µM turned out to be 90.3%.
Consider `COc1ccc2c(c1OC)C(=O)N(c1ncc(C)s1)C2` [CBK109943], for which the viability at 28.5 h, 10 µM stood at 99%.
Still for that read-out and setting: then `O=C1c2ccccc2C2OCc3ccccc3N12` (centres unmarked) [CBK109952], with 105%; and `CC(=O)OCc1nc2cc(F)c(F)cc2[nH]1` [CBK110117], with 92.9%.
Take `Cc1ccc(S(=O)(=O)NC(C)C(=O)Nc2cc(-c3nc4ccccc4[nH]3)ccc2C)cc1` (centres unmarked) [CBK110320]: the viability at 28.5 h, 10 µM amounted to 96.2%.
On to `O=[N+]([O-])c1cc([N+](=O)[O-])c2cccnc2c1NNc1nncc2ccccc12` [CBK110409], for which the viability at 28.5 h, 10 µM is 85.1%.
As to `Cc1nc2cc(Cl)ccc2n1CCO` [CBK110738], the viability at 28.5 h, 10 µM came out at 100%.
Same read-out and setting: then `CCCCC(=O)NC(c1ccccc1OC)c1cc(Cl)c2cccnc2c1O` (centres unmarked) [CBK110947], with 84.4%; and `O=C(C1=C(O)C(=O)N(CCCn2ccnc2)C1c1ccncc1)c1cccs1` (centres unmarked) [CBK111017], with 106%; and `O=C(CN1CCOCC1)Nc1c2c(nc3ccccc13)N(c1ccccc1)CC2` [CBK111136G], with 87.9%.
The same measure, in the same setting: then `COc1ccc2occ(C(=O)c3ccc(N)cc3)c2c1` [CBK111303], with 81.8%; and `COc1ccc(C)cc1NS(=O)(=O)CC(C)C` [CBK111346], with 93.8%; and `COc1ccc(C(=O)c2c[nH]c3ccccc23)cc1` [CBK111451], with 88.9%.
Take `O=C(O)CCn1c(CO)nc2ccccc21` [CBK111473]: the viability at 28.5 h, 10 µM was determined as 115%.
With `COCCn1nnnc1C(c1cc2cc(C)ccc2[nH]c1=O)N1CCN(C(=O)c2ccco2)CC1` (centres unmarked) [CBK111562], the viability at 28.5 h, 10 µM was 80.3%.
For `O=C(CSc1nnc(-c2cccnc2)n1Cc1ccccc1)NCc1ccccc1` [CBK111647], the viability at 28.5 h, 10 µM was determined as 95.7%.
For `COc1ccc(C(=O)C(C)OC(=O)c2ccc3ccccc3n2)cc1` (centres unmarked) [CBK111937], the viability at 28.5 h, 10 µM came to 99%.
The same measure, in the same setting: then `CCOC(=O)CN1N=C(C)C(Cc2c(Cl)cccc2Cl)(OC)C1=O` (centres unmarked) [CBK112646], with 98.1%.
`FC(F)(F)c1cccc(-c2cnn(-c3ccc4c(c3)OCO4)n2)c1` [CBK112664]: the viability at 28.5 h, 10 µM is 89.6%.
On to `CS(=O)(=O)c1ccc(-n2ncc(-c3cccc(C(F)(F)F)c3)n2)cc1` [CBK112672], for which the viability at 28.5 h, 10 µM came out at 95.6%.
Consider `COc1ccc(-n2ncc(-c3ccc(C(F)(F)F)cc3)n2)cc1` [CBK112688], for which the viability at 28.5 h, 10 µM worked out at 92.4%.
Still for that read-out and setting: then `CN(C)c1ccc(-n2ncc(-c3ccccc3C(F)(F)F)n2)cc1` [CBK112716], with 92.4%; and `COc1ccc(-c2cnn(-c3cncnc3)n2)cc1` [CBK112763], with 94.5%; and `COc1ccc(-c2cnn(-c3ccc(OC(F)(F)F)cc3)n2)cc1` [CBK112773], with 87.6%.
Regarding `Oc1ccc(-n2ncc(-c3ccc(Cl)cc3)n2)cc1` [CBK112794], the viability at 28.5 h, 10 µM was determined as 86.8%.
Turning to `NC(=O)c1cccc(-n2ncc(-c3cccnc3)n2)c1` [CBK112806], the viability at 28.5 h, 10 µM was 81.6%.
Turning to `CC(=O)Nc1cccc(-n2ncc(-c3cccnc3)n2)c1` [CBK112811], the viability at 28.5 h, 10 µM was found to be 98.7%.
Same read-out and setting: then `COc1cccc(-n2ncc(-c3cccnc3)n2)c1` [CBK112813], with 89.9%.
On the same count and under the same terms, then `Clc1ccc(-n2ncc(-c3cccnc3)n2)cc1Cl` [CBK112814], with 101%; and `c1cncc(-c2cnn(-c3ccc4[nH]ccc4c3)n2)c1` [CBK112820], with 85.7%; and `O=S1(=O)CCN(Cc2cnn(-c3cncnc3)n2)CC1` [CBK112878], with 100%.
The same measure, in the same setting: under `O=S1(=O)CCN(Cc2cnn(-c3ccc(OC(F)(F)F)cc3)n2)CC1` [CBK112883] stands 95.3%.
On to `CC(=O)c1ccc(-n2ncc(-c3ccc(F)cc3)n2)cc1` [CBK112889], for which the viability at 28.5 h, 10 µM was determined as 100%.
For the compound `Oc1ccc(-n2ncc(-c3ccc(F)cc3)n2)cc1` [CBK112904], the viability at 28.5 h, 10 µM is 79.7%.
The same measure, in the same setting: under `COc1ccc(-n2ncc(-c3ccc(Br)cc3F)n2)cc1OC` [CBK112915] stands 96.9%; under `COC(=O)c1ccc(-n2cc(-c3cccc(C(F)(F)F)c3)nn2)cc1` [CBK112936], 90%; under `COc1ccc(-n2cc(-c3ccc(C(F)(F)F)cc3)nn2)cc1OC` [CBK112952], 96.8%.
On the same count and under the same terms, then `N#Cc1cccc(-n2cc(-c3ccc(C(F)(F)F)cc3)nn2)c1` [CBK112957], with 88.1%.

Still in this data set, the particulars now being: human, hela cells, % viability, bulk resorufin, single well.
Consider `Cc1nc(C)c(C(=O)Nc2ccccc2-c2ccc3c(c2)COC2(CCNCC2)O3)s1` [CBK107628], for which the viability at 28.5 h, 10 µM was determined as 96.8%.
As to `CC(C)(C)OC(=O)N1CCC2(CC1)OCc1cc(-c3cccc(C(=O)O)c3)ccc1O2` [CBK107809], the viability at 28.5 h, 10 µM is 87.5%.
The same measure, in the same setting: then `COc1ccc(C(C)NC(=O)c2cccc(-c3ccc4c(c3)COC3(CCN(C(=O)OC(C)(C)C)CC3)O4)c2)cc1` (centres unmarked) [CBK107833], with 100%.
Same read-out and setting: under `CC(C)(C)OC(=O)N1CCC2(CC1)OCc1cc(-c3cccc(C(=O)NCc4ccc(Cl)cc4)c3)ccc1O2` [CBK107834] stands 93.3%.
The same measure, in the same setting: then `O=C(Cc1ccc(Cl)c(Cl)c1)Nc1ccccc1-c1ccc2c(c1)COC1(CCNCC1)O2` [CBK107890], with 100%.
